Experiments:
[1] = target: Dual specificity protein kinase CLK1 (Homo sapiens) (UniProt P49759); assay: Inhibition of human CLK1 at 100 nM using MBP as substrate by [gamma-33P]-ATP assay
[2] = target: Calcium/calmodulin-dependent protein kinase type 1D (Homo sapiens) (UniProt Q8IU85); assay: Inhibition of human CAMK1D at 100 nM using KKALRRQETVDAL as substrate by [gamma-33P]-ATP assay
[3] = target: Cyclin-Y/Cyclin-dependent kinase 16 (Homo sapiens) (UniProt Q00536+Q8ND76); assay: Inhibition of human CDK16/cyclin-Y at 100 nM using RB protein as substrate by [gamma-33P]-ATP assay; type: protein-complex assay
[4] = target: Serine/threonine-protein kinase A-Raf (Homo sapiens) (UniProt P10398); assay: Inhibition of human ARAF at 100 nM using MEK1 as substrate by [gamma-33P]-ATP assay
[5] = target: DNA-dependent protein kinase catalytic subunit (Homo sapiens) (UniProt P78527); assay: Inhibition of human DNAPK at 100 nM using EPPLSQEAFADLWKK as substrate by [gamma-33P]-ATP assay
Chain of DNA-dependent protein kinase catalytic subunit (Homo sapiens) (P78527 whole entry): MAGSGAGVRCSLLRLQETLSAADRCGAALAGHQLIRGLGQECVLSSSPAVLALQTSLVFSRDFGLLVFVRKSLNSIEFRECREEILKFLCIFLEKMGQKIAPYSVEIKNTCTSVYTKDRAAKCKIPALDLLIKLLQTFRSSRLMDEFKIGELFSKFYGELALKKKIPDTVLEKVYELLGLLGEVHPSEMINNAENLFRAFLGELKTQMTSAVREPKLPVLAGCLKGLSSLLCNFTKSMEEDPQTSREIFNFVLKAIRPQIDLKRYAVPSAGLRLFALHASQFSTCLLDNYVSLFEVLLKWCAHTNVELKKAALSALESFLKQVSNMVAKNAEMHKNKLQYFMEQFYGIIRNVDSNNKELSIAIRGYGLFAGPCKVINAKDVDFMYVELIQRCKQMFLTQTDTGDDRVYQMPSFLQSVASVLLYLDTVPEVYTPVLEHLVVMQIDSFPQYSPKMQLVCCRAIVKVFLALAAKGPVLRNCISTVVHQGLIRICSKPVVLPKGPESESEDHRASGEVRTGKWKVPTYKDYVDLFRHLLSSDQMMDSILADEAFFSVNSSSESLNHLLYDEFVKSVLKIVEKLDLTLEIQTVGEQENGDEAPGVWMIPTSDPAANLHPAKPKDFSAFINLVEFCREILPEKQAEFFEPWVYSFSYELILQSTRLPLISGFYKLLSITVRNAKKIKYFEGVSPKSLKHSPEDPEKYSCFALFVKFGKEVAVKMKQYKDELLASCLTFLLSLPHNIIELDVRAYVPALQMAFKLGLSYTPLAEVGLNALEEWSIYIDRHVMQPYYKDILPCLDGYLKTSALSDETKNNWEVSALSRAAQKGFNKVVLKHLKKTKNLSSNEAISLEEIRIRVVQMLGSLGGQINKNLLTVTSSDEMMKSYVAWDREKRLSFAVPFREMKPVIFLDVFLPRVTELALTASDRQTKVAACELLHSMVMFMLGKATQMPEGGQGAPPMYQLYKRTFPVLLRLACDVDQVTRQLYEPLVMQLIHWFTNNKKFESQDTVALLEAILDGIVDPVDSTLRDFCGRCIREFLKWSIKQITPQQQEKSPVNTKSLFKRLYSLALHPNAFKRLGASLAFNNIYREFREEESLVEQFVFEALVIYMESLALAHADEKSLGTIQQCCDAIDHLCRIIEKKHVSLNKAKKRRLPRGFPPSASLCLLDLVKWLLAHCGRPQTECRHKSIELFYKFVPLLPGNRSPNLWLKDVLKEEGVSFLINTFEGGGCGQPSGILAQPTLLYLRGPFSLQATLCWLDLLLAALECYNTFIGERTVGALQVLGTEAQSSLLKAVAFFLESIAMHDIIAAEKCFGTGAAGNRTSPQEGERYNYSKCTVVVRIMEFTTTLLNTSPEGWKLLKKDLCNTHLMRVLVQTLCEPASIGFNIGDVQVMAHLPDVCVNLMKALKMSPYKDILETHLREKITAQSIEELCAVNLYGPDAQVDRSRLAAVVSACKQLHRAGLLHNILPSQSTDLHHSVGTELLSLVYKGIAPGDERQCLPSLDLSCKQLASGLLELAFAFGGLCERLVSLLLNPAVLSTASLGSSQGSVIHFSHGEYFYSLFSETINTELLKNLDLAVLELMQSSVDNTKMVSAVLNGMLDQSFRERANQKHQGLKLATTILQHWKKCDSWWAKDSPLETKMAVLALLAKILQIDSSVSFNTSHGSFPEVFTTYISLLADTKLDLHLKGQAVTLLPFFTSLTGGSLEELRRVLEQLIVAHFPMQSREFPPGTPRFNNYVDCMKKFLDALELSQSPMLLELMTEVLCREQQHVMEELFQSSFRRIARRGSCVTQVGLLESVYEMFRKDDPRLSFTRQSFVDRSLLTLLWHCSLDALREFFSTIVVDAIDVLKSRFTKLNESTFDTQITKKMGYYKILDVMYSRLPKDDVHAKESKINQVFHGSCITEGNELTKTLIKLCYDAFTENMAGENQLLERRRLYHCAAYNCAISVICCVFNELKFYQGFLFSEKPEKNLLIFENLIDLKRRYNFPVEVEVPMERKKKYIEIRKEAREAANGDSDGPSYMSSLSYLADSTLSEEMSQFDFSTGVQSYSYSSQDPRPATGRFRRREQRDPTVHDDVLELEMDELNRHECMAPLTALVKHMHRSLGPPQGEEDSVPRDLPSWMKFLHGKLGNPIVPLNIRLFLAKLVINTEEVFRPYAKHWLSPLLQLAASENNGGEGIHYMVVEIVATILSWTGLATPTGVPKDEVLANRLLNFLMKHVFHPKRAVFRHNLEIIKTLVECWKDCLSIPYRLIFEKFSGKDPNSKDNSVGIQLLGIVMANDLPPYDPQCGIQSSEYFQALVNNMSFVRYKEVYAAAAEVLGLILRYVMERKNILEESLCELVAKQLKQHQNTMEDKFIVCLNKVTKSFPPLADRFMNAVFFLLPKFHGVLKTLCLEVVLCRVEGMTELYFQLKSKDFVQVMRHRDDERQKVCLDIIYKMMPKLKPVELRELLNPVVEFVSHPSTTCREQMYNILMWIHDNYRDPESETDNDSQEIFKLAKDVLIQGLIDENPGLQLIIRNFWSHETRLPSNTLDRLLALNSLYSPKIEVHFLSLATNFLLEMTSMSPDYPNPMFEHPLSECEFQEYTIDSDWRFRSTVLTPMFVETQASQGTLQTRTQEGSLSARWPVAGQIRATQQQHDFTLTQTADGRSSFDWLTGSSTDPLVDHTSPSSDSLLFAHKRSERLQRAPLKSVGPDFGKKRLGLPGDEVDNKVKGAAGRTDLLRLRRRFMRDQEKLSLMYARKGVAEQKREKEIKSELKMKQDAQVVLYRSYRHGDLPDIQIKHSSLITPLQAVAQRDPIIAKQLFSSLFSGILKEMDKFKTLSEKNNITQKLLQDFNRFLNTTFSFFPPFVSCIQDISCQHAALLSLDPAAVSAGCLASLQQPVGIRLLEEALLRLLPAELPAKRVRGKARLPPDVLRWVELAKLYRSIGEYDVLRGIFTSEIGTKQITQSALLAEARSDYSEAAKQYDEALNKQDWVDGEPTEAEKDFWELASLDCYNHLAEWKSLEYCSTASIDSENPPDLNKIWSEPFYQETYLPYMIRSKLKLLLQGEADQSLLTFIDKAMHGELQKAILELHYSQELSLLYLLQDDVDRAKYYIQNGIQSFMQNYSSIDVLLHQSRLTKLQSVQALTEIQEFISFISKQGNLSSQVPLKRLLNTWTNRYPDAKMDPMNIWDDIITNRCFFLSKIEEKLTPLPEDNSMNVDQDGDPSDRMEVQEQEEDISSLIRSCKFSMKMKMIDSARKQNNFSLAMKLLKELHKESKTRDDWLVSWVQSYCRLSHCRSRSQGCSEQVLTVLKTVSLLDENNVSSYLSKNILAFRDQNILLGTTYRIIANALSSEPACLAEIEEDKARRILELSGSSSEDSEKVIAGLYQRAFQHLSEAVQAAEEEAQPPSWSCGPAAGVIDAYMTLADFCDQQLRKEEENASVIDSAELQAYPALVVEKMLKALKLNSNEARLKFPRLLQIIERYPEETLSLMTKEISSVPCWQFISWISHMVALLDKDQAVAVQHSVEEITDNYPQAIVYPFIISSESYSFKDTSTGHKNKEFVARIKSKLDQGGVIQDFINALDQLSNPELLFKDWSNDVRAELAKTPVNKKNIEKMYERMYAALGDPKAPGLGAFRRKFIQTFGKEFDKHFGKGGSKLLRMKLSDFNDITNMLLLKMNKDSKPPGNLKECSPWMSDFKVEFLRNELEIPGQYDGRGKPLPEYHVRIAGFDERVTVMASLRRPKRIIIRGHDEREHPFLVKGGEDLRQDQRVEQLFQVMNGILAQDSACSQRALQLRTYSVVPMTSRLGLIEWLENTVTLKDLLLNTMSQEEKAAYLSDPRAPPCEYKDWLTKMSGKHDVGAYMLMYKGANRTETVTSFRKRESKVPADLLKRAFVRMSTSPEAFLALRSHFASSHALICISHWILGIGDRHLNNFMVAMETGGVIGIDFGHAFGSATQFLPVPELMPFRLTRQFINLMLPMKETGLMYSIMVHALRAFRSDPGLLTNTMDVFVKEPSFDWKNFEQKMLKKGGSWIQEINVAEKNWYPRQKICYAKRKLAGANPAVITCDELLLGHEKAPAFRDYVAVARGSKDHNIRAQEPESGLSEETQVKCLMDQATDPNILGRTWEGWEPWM

[6] = target: Serine/threonine-protein kinase MRCK gamma (Homo sapiens) (UniProt Q6DT37); assay: Inhibition of human DMPK2 at 100 nM using KKRPQRRYSNVF as substrate by [gamma-33P]-ATP assay
[7] = target: Ribosomal protein S6 kinase beta-2 (Homo sapiens) (UniProt Q9UBS0); assay: Inhibition of human p70S6Kb at 100 nM using KKRNRTLTK as substrate by [gamma-33P]-ATP assay
[8] = target: Inhibitor of nuclear factor kappa-B kinase subunit alpha (Homo sapiens) (UniProt O15111); assay: Inhibition of human IKKalpha at 100 nM using KKKKERLLDDRHDSGLDSMKDEE as substrate by [gamma-33P]-ATP assay
[9] = target: Serine/threonine-protein kinase PLK4 (Homo sapiens) (UniProt O00444); assay: Inhibition of human PLK4 at 100 nM using casein as substrate by [gamma-33P]-ATP assay
[10] = target: Casein kinase I isoform gamma-2 (Homo sapiens) (UniProt P78368); assay: Inhibition of human CK1gamma2 at 100 nM using KRRRAL[pS]VASLPGL as substrate by [gamma-33P]-ATP assay
[11] = target: Angiopoietin-1 receptor (Homo sapiens) (UniProt Q02763); assay: Inhibition of human TIE2 at 100 nM using poly[Glu:Tyr] (4:1) as substrate by [gamma-33P]-ATP assay
[12] = target: Ephrin type-B receptor 2 (Homo sapiens) (UniProt P29323); assay: Inhibition of human EPHB2 at 100 nM using poly[Glu:Tyr] (4:1) as substrate by [gamma-33P]-ATP assay
Chain of Ephrin type-B receptor 2 (Homo sapiens) (P29323 whole entry): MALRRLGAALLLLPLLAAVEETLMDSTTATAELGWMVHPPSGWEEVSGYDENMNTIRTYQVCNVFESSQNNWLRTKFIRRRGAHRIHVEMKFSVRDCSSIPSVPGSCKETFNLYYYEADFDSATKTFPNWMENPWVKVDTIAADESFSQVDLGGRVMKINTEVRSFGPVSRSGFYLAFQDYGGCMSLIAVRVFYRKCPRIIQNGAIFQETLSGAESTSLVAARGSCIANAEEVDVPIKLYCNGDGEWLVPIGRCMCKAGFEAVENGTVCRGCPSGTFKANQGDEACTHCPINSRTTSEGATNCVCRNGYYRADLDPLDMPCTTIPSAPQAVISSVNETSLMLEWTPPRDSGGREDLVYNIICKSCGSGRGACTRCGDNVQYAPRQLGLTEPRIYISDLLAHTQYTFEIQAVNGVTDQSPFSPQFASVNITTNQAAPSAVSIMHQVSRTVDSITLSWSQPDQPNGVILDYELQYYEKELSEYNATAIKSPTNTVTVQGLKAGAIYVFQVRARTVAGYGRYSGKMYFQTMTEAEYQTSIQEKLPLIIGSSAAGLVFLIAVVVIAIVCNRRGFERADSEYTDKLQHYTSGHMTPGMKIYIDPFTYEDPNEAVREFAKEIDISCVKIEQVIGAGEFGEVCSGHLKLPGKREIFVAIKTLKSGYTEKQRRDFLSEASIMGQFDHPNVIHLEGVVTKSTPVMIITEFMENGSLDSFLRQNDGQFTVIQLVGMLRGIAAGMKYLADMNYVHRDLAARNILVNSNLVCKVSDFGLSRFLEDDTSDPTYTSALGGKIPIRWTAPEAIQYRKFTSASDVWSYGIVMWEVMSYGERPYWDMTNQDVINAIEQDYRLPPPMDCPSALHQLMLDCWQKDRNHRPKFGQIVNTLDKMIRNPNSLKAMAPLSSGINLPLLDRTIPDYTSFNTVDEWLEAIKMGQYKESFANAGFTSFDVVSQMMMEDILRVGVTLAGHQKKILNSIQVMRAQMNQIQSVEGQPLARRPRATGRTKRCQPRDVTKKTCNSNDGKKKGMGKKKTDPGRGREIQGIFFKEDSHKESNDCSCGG

[13] = target: Serine/threonine-protein kinase OSR1 (Homo sapiens) (UniProt O95747); assay: Inhibition of human OSR1 at 100 nM using RRHYYYDTHTNTYYLRTFGHNTRR as substrate by [gamma-33P]-ATP assay
[14] = target: Phosphatidylinositol 4,5-bisphosphate 3-kinase catalytic subunit alpha isoform (Homo sapiens, UniProt P42336); assay: Inhibition of recombinant human full length N-terminal GST-tagged PI3Kalpha (1 to 1068 residues)/PIK3R1 (1 to 724 residues) expressed in baculovirus expression system using PIP2 as substrate incubated for 1 hr by ADP-Glo assay
[15] = target: Casein kinase II subunit alpha (Homo sapiens) (UniProt P68400); assay: Inhibition of human CK2A at 100 nM using RRRDDDSDDD as substrate by [gamma-33P]-ATP assay
[16] = target: Platelet-derived growth factor receptor beta (Homo sapiens) (UniProt P09619); assay: Inhibition of human PDGFRbeta at 100 nM using poly[Glu:Tyr] (4:1) as substrate by [gamma-33P]-ATP assay
[17] = target: Tyrosine-protein kinase Lyn (Homo sapiens) (UniProt P07948); assay: Inhibition of human LYN-B at 100 nM using poly[Glu:Tyr] (4:1) as substrate by [gamma-33P]-ATP assay
[18] = target: CDK3/Cyclin E (Homo sapiens) (UniProt P24864+Q00526); assay: Inhibition of human CDK3/cyclin-E at 100 nM using histone H1 as substrate by [gamma-33P]-ATP assay; type: protein-complex assay
[19] = target: Protein kinase C beta type (Homo sapiens) (UniProt P05771); assay: Inhibition of human PKCb2 at 100 nM using Histone H1 as substrate by [gamma-33P]-ATP assay
[20] = target: Ephrin type-B receptor 3 (Homo sapiens) (UniProt P54753); assay: Inhibition of human EPHB3 at 100 nM using poly[Glu:Tyr] (4:1) as substrate by [gamma-33P]-ATP assay
[21] = target: Serine/threonine-protein kinase WNK3 (Homo sapiens) (UniProt Q9BYP7); assay: Inhibition of human WNK3 at 100 nM using MBP as substrate by [gamma-33P]-ATP assay
[22] = target: Casein kinase I isoform gamma-3 (Homo sapiens) (UniProt Q9Y6M4); assay: Inhibition of human CK1gamma3 at 100 nM using KRRRAL[pS]VASLPGL as substrate by [gamma-33P]-ATP assay
[23] = target: Serine/threonine-protein kinase D1 (Homo sapiens) (UniProt Q15139); assay: Inhibition of human PKCmu at 100 nM using KKLNRTLSVA as substrate by [gamma-33P]-ATP assay
[24] = target: Vascular endothelial growth factor receptor 3 (Homo sapiens) (UniProt P35916); assay: Inhibition of human FLT4 at 100 nM using poly[Glu:Tyr] (4:1) as substrate by [gamma-33P]-ATP assay
[25] = target: Tyrosine-protein kinase Fgr (Homo sapiens) (UniProt P09769); assay: Inhibition of human FGR at 100 nM using poly[Glu:Tyr] (4:1) as substrate by [gamma-33P]-ATP assay
[26] = target: Ephrin type-A receptor 4 (Homo sapiens) (UniProt P54764); assay: Inhibition of human EPHA4 at 100 nM using poly[Glu:Tyr] (4:1) as substrate by [gamma-33P]-ATP assay
[27] = target: Calcium/calmodulin-dependent protein kinase type 1G (Homo sapiens) (UniProt Q96NX5); assay: Inhibition of human CAMK1G at 100 nM using KKALRRQETVDAL as substrate by [gamma-33P]-ATP assay
[28] = AUC (0 to infinity) in Sprague-Dawley rat at 10 mg/kg, po measured upto 24 hrs by LC-MS/MS analysis; type: ADME, organism-based; parameters: dose 10 mg/kg, time infinity, route oral; settings: in vivo
[29] = target: Myosin light chain kinase family member 4 (Homo sapiens) (UniProt Q86YV6); assay: Inhibition of human MYLK4 at 100 nM using KKRPQRRYSNVF as substrate by [gamma-33P]-ATP assay
[30] = target: Serine/threonine-protein kinase PAK 4 (Homo sapiens) (UniProt O96013); assay: Inhibition of human PAK4 at 100 nM using RRRLSFAEPG as substrate by [gamma-33P]-ATP assay

Work on `COc1ccc(N2C(=O)COc3ccc(-c4cnc(OC)c(NS(=O)(=O)c5ccc(F)cc5)c4)cc32)cc1` yielded an inhibition [1] of 7.77%, an inhibition [2] of 0% and an inhibition [3] of 0.27%. It also gave an inhibition [4] of 0.31%, an inhibition [5] of 74.4% and an inhibition [6] of -9.5%. The inhibition [7] was 22.3%, the inhibition [8] was -2.43% and the inhibition [9] was -1.06%. The inhibition [10] was 1.74%, the inhibition [11] was 8.06% and the inhibition [12] was -6.07%. It also gave an inhibition [13] of 4.85%, an IC50 [14] of 630 pM and an inhibition [15] of 12.7%. The inhibition [16] was 0.28%, the inhibition [17] was 4.9% and the inhibition [18] was 2.71%. It also gave an inhibition [19] of -6.74%, an inhibition [20] of -1.65% and an inhibition [21] of -0.32%. The inhibition [22] was -3.55%, the inhibition [23] was 25.9% and the inhibition [24] was -7.65%. It also gave an inhibition [25] of 5.02%, an inhibition [26] of 6.1% and an inhibition [27] of 14.6%. The AUC(0-inf) [28] was 4750 ng·h/mL, the inhibition [29] was 7.06% and the inhibition [30] was 7.74%.
